Entries after “also recorded” stand apart in the source; their conditions may differ.

A short description of data set [1]: Tightly protein-bound 14C radioactivity after 14C-salicylamide. The settings on record: for Effect on tightly protein-bound 14C in lung: 14C-SAM with ASA; for Tightly protein-bound 14C in heart / Tightly protein-bound 14C in kidney / Tightly protein-bound 14C in liver / Tightly protein-bound 14C in lung / Tightly protein-bound 14C in plasma: 1.5 hr. In kind it is in vivo, male Sprague-Dawley rats. How it is done: Forty-eight rats were divided into two groups.
The rats were anesthetized by light diethyl ether inhalation.
The plasma tightly protein-bound activity was measured by adding 100 μl of 10% trichloroacetic acid (TCA) to 100 μl of plasma in microcentrifuge tubes and vortexing the contents for 1 minute followed by centrifugation at 1800×g for 10 minutes. The supernatant was decanted and the tubes with the pellets in them were placed in scintillation vials each containing 15 ml of Aquasol-2 scintillation fluid. […] The radioactivity in the scintillation vials was counted in Beckman LS counter.
In the case of plasma analysis, 100 μl samples were used and the remainder of the procedure was the same as described above. The pellets were not dissolved but instead directly poured in a tube containing 15 ml of the scintillation fluid and the radioactivity was measured in the Beckman LS counter.

Data set [2] relates to platelet cyclooxygenase. The data set is described as follows: Thromboxane B2 synthesis by arachidonic acid-stimulated platelet-rich plasma in vitro. The settings on record: for Effect on TX B2 formation / platelet cyclooxygenase: arachidonic acid-stimulated PRP. In kind it is cell-based, male Sprague-Dawley rats. An excerpt: Was done manually by the method of Brecher and Conkite (1953) using phase contrast microscopy (Balplan) with a 40×annulus, 40×phase objective, and 10×ocular (total of 400×), and a special platelet counting chamber (American Optical Corp., Buffalo, N.Y.) and dilution with 1% ammonium oxalate. The platelet-rich plasma (PRP) was adjusted by dilution with platelet-poor plasma (PPP) to give a final count of 1×10^9 platelets/ml.
Arachidonic acid (as the sodium salt, >99.0% pure) was obtained from Sigma Chemical Co. and a stock solution of 34.5 mM was prepared by dissolving in isotonic saline. 20 μl of the stock solution were added to 440 μl of PRP (400 μl of PRP and 20 or 40 μl of treatment solution ±20 μl of saline) to make a 23 fold dilution. The final concentration of AA in PRP was 1.5 mM.
EDTA solution was prepared by adding 2 gm disodium EDTA and 0.8 gm NaCl and were adjusted to pH 7.4 with NaOH and made up to a final volume of 100 ml in distilled water. ASA solution was prepared by dissolving 30 mg in 10 ml of isotonic saline to make a solution of 3 mg/ml.
950 μl of EDTA solution were added to 50 μl of ASA solution and the mixture was vortexed. 40 μl of the mixture were pipetted in the experiment test tubes to stop further prostaglandin production.
Platelet-rich plasma (PRP) was prepared from male Sprague-Dawley rats (300-325 gm). The blood was collected by heart puncture and added to 3.8% citrate solution, final volume 9:1, blood:citrate. The blood was centrifuged at 120×g (750 rpm) for 15 minutes at 4° C. to obtain PRP. The rest of the blood was spun at 1800×g (3000 rpm) for 10 minutes to get the PPP which was used later for dilution of the PRP to achieve the final desired platelet concentration of 1×10^9 platelets/ml. 400 μl of PRP, containing 4×10^8 platelets, were pipetted in polypropylene tubes and the following treatment groups were studied:
1--Baseline (-ve control) tubes: to measure the baseline production of Thromboxane B2 (TX B2) by platelets during the time of the experiment, 60 μl of saline were added and left for 10 minutes in a shaking water bath at 37° C.
2--Control (+ve control) tubes: 20 μl of arachidonic acid (AA) solution were added to achieve a final concentration of 1.5 mM and the tubes were incubated […].
3--ASA and/or SAM treatment tubes: 20 μl of ASA (final conc. 130 μg/ml), 20 μl of SAM solution (final conc. 40 μg/ml), 20 μl of ASA/SAM(L) solution (final conc. 130/40 μg/ml) or 20 μl of ASA/SAM(H) solution (final conc. 130/120 μg/ml) were added to PRP together with 20 μl of saline for 10 minutes, then 20 μl of AA solution were added for additional 10 minutes.
4--ASA/SA treatment: 20 μl of ASA/SA solution (final conc. 130/130 μg/ml) and 20 μl of saline were added to the tubes for 10 minutes before AA was added for further 10 minutes.
5--ASA/SA/SAM treatment: 20 μl of ASA/SA solution (130/130 μg/ml as final conc.) and 20 μl of […] in low (L) or high (H) concentrations (40 or 120 μg/ml, final conc.) were added simultaneously to PRP followed 10 minutes later by AA.
6--SAM/SA treatment: 20 μl of SAM solution (final conc. 40 μg/ml) and 20 μl of SA solution (final conc. 130 μg/ml) were added followed 10 minutes later by AA for additional 10 minutes.
Also, the effect of SAM when administered first to the platelets followed 10 minutes later by ASA was studied to know whether the effect of SAM is time dependent or not.
During the treatment, all the tubes were incubated at 37° C. in a shaking water bath. Ten minutes after the addition of AA, or saline (for the control tubes), the experiment was ended by addition of 40 μl of EDTA/ASA solution. The tubes were immediately centrifuged at 1800×g for 15 minutes at 4° C. to precipitate the platelets and 100 μl of the supernatant were obtained for estimation of their content of TX B2 using a specific radioimmunoassay (Amersham International) (vide infra).
Radioimmunoassay Procedure for Measurement of Thromboxane B2 and 6-keto PG F1alpha […]

The mark [3] stands for this setting: oral 14C-SAM 3 mg/kg, alone or with ASA 10 mg/kg.
The mark [4] stands for this setting: oral 14C-SAM 6 mg/kg, alone or with ASA 20 mg/kg.

For `CC(=O)Oc1ccccc1C(=O)O` [ASA, acetylsalicylic acid], the “Effect on tightly protein-bound 14C in lung” value in data set [1] (high dose) is given as “reached a significant level”. Also, the “Effect on tightly protein-bound 14C in lung” value in data set [1] (low dose) is “tended to be higher”. In data set [1] (low dose combination), the “Effect of ASA on tightly protein-bound 14C in heart” value is listed as “significantly enhanced”. In data set [2], the “Effect of ASA addition to SAM/SA on TX B2” value was “significant blocking of platelet cyclooxygenase” and the “Effect on TX B2 formation / platelet cyclooxygenase” value was “significant inhibition of TX B2 formation”.

Consider `NC(=O)c1ccccc1O` [SAM, Salicylamide], for which the “Reversal of SA effect by SAM” value was ~ 60% in data set [2] (SAM 40 μg/ml with ASA/SA) and “completely preempted SA effect” in data set [2] (SAM 120 μg/ml with ASA/SA). Moreover, in data set [2] (SAM 40 or 120 μg/ml coadministered with ASA), the “Effect of SAM on ASA inhibition of TX B2 synthesis” value is reported as “did not influence ASA inhibition of TX B2 synthesis; also recorded: did not alter ASA-induced inhibition of platelet cyclooxygenase”. The “Effect on TX B2 formation / platelet cyclooxygenase” value in data set [2] is “did not change TX B2 production compared to control”. The “Effect on the aspirin-antagonistic effect of SA” value in data set [2] (platelet cyclooxygenase) was “dose-dependently quench the aspirin-antagonistic effect of SA”.

On to `N[14C](=O)c1ccccc1O` [^14 C-SAM], for which, in data set [1] (setting [3]), the “Tightly protein-bound 14C in heart” value is 20.6 ± 1.7 ng ^14 C/gm tissue, the “Tightly protein-bound 14C in kidney” value is listed as 669.0 ± 45.1 ng ^14 C/gm tissue, the “Tightly protein-bound 14C in liver” value was 24.2 ± 4.0 ng ^14 C/gm tissue and the “Tightly protein-bound 14C in lung” value is 43.1 ± 6.1 ng ^14 C/gm tissue. Besides, the “Tightly protein-bound 14C in plasma” value in data set [1] (setting [3]) is 57.8 ± 3.0 ng ^14 C/ml plasma. In data set [1] (setting [4]), the “Tightly protein-bound 14C in heart” value came to 87.7 ± 11.0 ng ^14 C/gm tissue, the “Tightly protein-bound 14C in kidney” value came out at 1104.5 ± 212.6 ng ^14 C/gm tissue, the “Tightly protein-bound 14C in liver” value is on record as 72.6 ± 10.7 ng ^14 C/gm tissue and the “Tightly protein-bound 14C in lung” value is reported as 134.8 ± 20.7 ng ^14 C/gm tissue. Further, the “Tightly protein-bound 14C in plasma” value in data set [1] (setting [4]) worked out at 154.6 ± 29.8 ng ^14 C/ml plasma.
